pIC50, pKi: −log10 of the molar value.
Tests used:
[1] = test system: human TTR isolated from human plasma; parameters: method as in PMID 19033396; details: in vitro; cited from earlier work
human albumin (ALB) = human albumin (ALB) (Homo sapiens, UniProt P02768); assay: Competitive T4 radio-ligand (125I-T4) binding assay with human albumin; details: 600 nM ALB
Description: (§1) The entire assay takes two days to complete for each batch of samples to be processed. The Day 1 procedure is described as follows. […] First, thaw the working solutions of these components to room temperature if they have been placed in frozen storage. For the protein working solutions, prepare the day they are to be used based on the number of assay aliquots required (one vial is sufficient for approximately 45 assay samples). […] Label a series of polypropylene test tubes corresponding to the samples being prepared. This should include triplicate samples for each ligand competitor concentration.
(§2) The following steps describe the order of pipetting components for assay incubation mixtures. • 1. […] Continue for each increasing concentration of the ligand. Control samples receive 5 μL of DMSO in place of a competitor ligand. • 2. […] Centrifuge the samples at 300 × g for 30 s to force the solution to the bottom of the tube. • 4. Measure the initial radioactivity on the gamma counter. […]
(§3) Label a series of clean test tubes corresponding to the samples prepared on Day 1 and repeat these labels on Bio-Spin® columns. Work on one replicate set at a time, leaving the remaining columns and incubation mixtures in the fridge until ready for processing. […] Measure the radioactivity of the eluate fraction, as well as the residual radioactivity in the incubation tubes containing the discarded pipette tips. […]

[2] = molecular target: human transthyretin (TTR) (Homo sapiens, UniProt P02766); assay: Competitive T4 radio-ligand (125I-T4) binding assay with human transthyretin; details: 30 nM TTR
Description: as §1, §2, §3

human albumin (ALB), sequence (P02768 25-609): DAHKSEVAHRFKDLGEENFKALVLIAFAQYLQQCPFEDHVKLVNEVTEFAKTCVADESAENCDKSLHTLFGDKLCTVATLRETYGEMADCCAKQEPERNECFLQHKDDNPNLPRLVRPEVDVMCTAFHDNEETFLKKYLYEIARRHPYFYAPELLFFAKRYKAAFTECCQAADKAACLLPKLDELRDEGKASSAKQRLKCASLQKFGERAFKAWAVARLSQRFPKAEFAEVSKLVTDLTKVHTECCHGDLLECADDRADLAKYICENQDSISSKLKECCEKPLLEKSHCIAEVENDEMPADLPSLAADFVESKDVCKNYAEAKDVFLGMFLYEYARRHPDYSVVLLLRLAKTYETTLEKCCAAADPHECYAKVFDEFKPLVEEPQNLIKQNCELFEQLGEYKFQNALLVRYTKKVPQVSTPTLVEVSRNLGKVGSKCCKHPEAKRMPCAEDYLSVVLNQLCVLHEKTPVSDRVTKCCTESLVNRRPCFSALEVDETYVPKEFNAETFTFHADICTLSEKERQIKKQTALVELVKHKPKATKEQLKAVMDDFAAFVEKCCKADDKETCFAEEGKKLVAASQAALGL

For Oc1cc(Br)c(Oc2ccc(Br)cc2Br)cc1Br [4-OH-BDE-49, 4′-hydroxy-2,2′,4,5′-tetrabromodiphenyl ether], the “Binding affinity for human TTR compared with T4” value [1] is given as “higher affinity than T4”, the pIC50 (human albumin (ALB); read-out: IC50, T4-ALB competitive binding, 55 nM T4 + 125I-T4, overnight at 4 °C, Tris-EDTA pH 8.0, 6 replicates) is given as 8.94 and the pKi (human albumin (ALB); read-out: Ki, T4-ALB competitive binding, calculated from IC50 after Cheng and Prusoff, unit inferred) is given as 8.97. For the same compound, the pIC50 ([2]; read-out: IC50, T4-TTR competitive binding, 55 nM T4 + 125I-T4, overnight at 4 °C, Tris-EDTA pH 8.0, 6 replicates) was 7.91 and the pKi ([2]; read-out: Ki, T4-TTR competitive binding, calculated from IC50 after Cheng and Prusoff, unit inferred) was 7.91.

Reference: paper PMC5671392, “Optimization of an in vitro assay methodology for competitive binding of thyroidogenic xenobiotics with thyroxine on human transthyretin and albumin” (MethodsX, 2017)
